Data on one compound can be found in publication PMC9050848, “Carbamoyl-N-aryl-imine-urea: a new framework to obtain a putative leishmanicidal drug-candidate” (RSC Advances, 2020).

A short description of the data set: Plasma stability (UPLC-MS/MS recovery). The data set is classed as in vitro ADME. Conditions: 37 °C, rat plasma diluted 1:1 with PBS pH 7.4, read-out: Compound recovery after incubation with rat plasma. How it is done:
To investigate the potential plasma instability of the carbamoyl-N-arylimine-urea subunit, designed as a new peptide mimetic framework, compound 10e (LASSBio-1736) was selected to investigate its plasma stability,[21,22] previously to the evaluation of its in vivo leishmanicidal effect. Quantitation of 10e (LASSBio-1736), benzocaine standard (positive control; it means a substrate drug for plasma hydrolysis) and ketoconazole (internal standard) was determined by UPLC-MS/MS, after incubation of the compounds at 0, 30, 60, 120 and 240 min with rat plasma, and measuring the peak areas in three different experiments.
For analysis of plasma stability, 5 μL (250 ng mL^−1) of a concentrated solution of 10e (LASSBio-1736) or the positive control benzocaine (stock concentration = 10 000 ng mL^−1 solubilized in DMSO) was added in 195 μL of rat plasma solution (1 : 1) diluted with PBS (pH 7.4). […] The supernatant (400 μL) were placed in 2 mL vials, and analyzed by UPLC-MS/MS. […]
Detection in single reaction monitoring (SRM) mode was used for determination of the LASSBio-1736 (10e) m/z 419.1 → 205.0, benzocaine m/z 166.1 → 137.9 and ketoconazole (IS) 532.1 → 490.3, with a tolerance of mass deviation of 6 ppm, operating in positive ionization mode. The data were acquired using TraceFinder 3.2. software (Thermo Fisher Scientific, Waltham, USA), and analyzed using GraphPad Prism 5 program.

In the case of `CCOC(=O)c1ccc(N)cc1` [benzocaine, reference compound], the recovery at 4 h, 250 ng/mL is 38%.
